These results are taken from US7723066B1, “Processes for in vivo production of astaxanthin and phaffia rhodozyma yeast of enhanced astaxanthin content” (Igene Biotechnology, Inc., priority 1988, dated 2010).

Like-named read-outs stand apart in the source and are kept apart here.

Type in all cases: cell-based, Phaffia rhodozyma
The subject of assay [1] is P. rhodozyma. The assay is described as follows: Inhibitors incorporated into yeast malt extract medium: killing, growth and colony colour. Particulars: nicotine 1 mM, imidazole 4 mM, 2-methylimidazole 1 mM, morpholine 10 mM.
Assay [2] has as its system P. rhodozyma. An excerpt: One of the selected progeny (IGI-887J0; see FIG. 2 and accompanying text) was characterized physiologically.
Sensitivities of the mutants to various respiratory inhibitors including antimycin A, theonyltrifluoroacetine, sodium azide, hydrogen peroxide and sodium cyanide were examined. These inhibitors affect different regions of the respiratory chain.

The test system of assay [3] is P. rhodozyma. Nature of the assay: Inhibitors incorporated into yeast malt extract medium: killing, growth and colony colour. The settings on record: for influence on pigmentation of P. rhodozyma: YM plates or liquid growth media; for killing of P. rhodozyma: incorporated into yeast malt extract medium agar. An excerpt: The inventors also tried treating P. rhodozyma with several inhibitors of electron transport including thenoyltrifluoroacetone (TTFA), antimycin A, and sodium cyanide.

Assay [4] deals with P. rhodozyma. The assay is described as follows: Morphological selection on agent-containing medium, colonies assayed for pigment. An excerpt: More specifically, the inventors have discovered that by subjecting a naturally occurring or mutated strain of P. rhodozyma to growth in the presence of a metabolic pathway inhibitor, particularly a main respiratory pathway inhibitor, in the presence of an influence such as an agent or environmental condition which triggers a secondary respiratory pathway, or morphological selection using a selecting agent, and particularly an antibiotic, a cytochrome B inhibitor, or a terpenoid synthetic pathway inhibitor as a selecting agent, a directed and specific selection of highly pigmented P. rhodazyma takes place. For example, plating of the pink yeast, P. rhodozyma, to agar containing an antibiotic, a cytochrome B inhibitor, or a terpenoid synthetic pathway inhibitor gave rise to colonies of unusual morphology characterized by a nonpigmented lower smooth surface that developed highly pigmented vertical papillae after 1 to 2 months.
The sequence of mutations and selections with which the highest astaxanthin yielding strains to date have been produced is shown in FIG. 2. With reference to FIG. 2, the naturally occurring parent 67-385, obtained from the American Type Culture Collection ATCC No. 24230, was assayed as containing 200-600 μg/g dry weight of yeast in 6 day growth. 67-385 was subjected to antimycin selection, and higher pigmented progeny, referred to as 10′-887J0 were obtained. The first mutant papillus dissected from the basal colony contained approx. 700 μg total carotenoid/g yeast compared to the parental strain which had 300 to 400 μg/g. 10′-887J0 was assayed to have an astaxanthin content of 960 μg/g dry weight of yeast in 6 day growth. 10′-887J0 was replated to YM agar containing 50 μM antimycin and second generation antimycin colonies were selected. One of these produced 1200 μg/g and another produced 1450 μg/g. […]
After harvest from 30 ml growth medium, the cells are washed in water and resuspended in 30 ml of water. The optical density is measured to determine growth. […]

In the case of `Cc1ncc[nH]1` [2-methylimidazole], in the assay on P. rhodozyma [1], the “color of the colonies” value is “did visually change the color of the colonies” and the growth result is given as “did not impair growth”.

As for `O=C(CC(=O)C(F)(F)F)c1cccs1` [TTFA, thenoyltrifluoroacetone], the “sensitivity of the antimycin mutants compared with parental strain” value (shortened to “sensitivity … compared with parental strain”) in the assay on P. rhodozyma [2] (antimycin-isolated mutants) was “quite sensitive”. Also, the “sensitivity of mutant compared with natural isolate” value in the assay on P. rhodozyma [2] (strain IGI-887J0) was “increased sensitivities”. In the assay with P. rhodozyma [3], the “influence on pigmentation of P. rhodozyma” value is on record as “do not seem to significantly influence pigmentation”. Also, the “killing of naturally occurring P. rhodozyma by inhibitors of electron transport” value in the assay on P. rhodozyma [3] (naturally occurring P. rhodozyma) was “substantially killed by low concentrations”.

As for `[N-]=[N+]=[N-].[Na+]` [azide, sodium azide], in the assay on P. rhodozyma [2], the “sensitivity of mutant compared with natural isolate” value is reported as “did not differ” and the “sensitivity … compared with parental strain” value is reported as “did not differ in sensitivity”. Also, the “killing of naturally occurring P. rhodozyma by inhibitors of electron transport” value with P. rhodozyma [3] was “relatively insensitive”.

Regarding `OO` [hydrogen peroxide], in the assay on P. rhodozyma [2], the “sensitivity of mutant compared with natural isolate” value is given as “more sensitive to killing” and the “sensitivity … compared with parental strain” value is given as “quite sensitive”.

For the compound `c1c[nH]cn1` [imidazole], in the assay on P. rhodozyma [3], the “color of the colonies” value is “did visually change the color of the colonies” and the growth result is “did not impair growth”.

Regarding `CC(=O)N1CCN(c2ccc(OCC3COC(Cn4ccnc4)(c4ccc(Cl)cc4Cl)O3)cc2)CC1` (centres unmarked) [ketoconazole], the “killing of P. rhodozyma” value in the assay on P. rhodozyma [3] is recorded as “significant killing”.

For `C[C@@]1(O)CCOC(=O)C1` [mevalonic acid lactone], the “pigment of resistant mutant” value with P. rhodozyma [4] (25 mM mevalonic acid lactone resistant mutant of NTG-mutagenized ATCC 24202, control 275 μg/g) amounted to 540 µg/g.

As to `Clc1ccc(COC(Cn2ccnc2)c2ccc(Cl)cc2Cl)c(Cl)c1` (centres unmarked) [miconazole], the “killing of P. rhodozyma” value in the assay on P. rhodozyma [3] was “significant killing”.

As for `C1COCCN1` [morpholine], in the assay on P. rhodozyma [3], the “color of the colonies” value was “did visually change the color of the colonies” and the growth entry is reported as “did not impair growth”.

Consider `CN1CCCC1c1cccnc1` (centres unmarked) [nicotine], for which, in the assay with P. rhodozyma [1], the “color of the colonies” value is reported as “did visually change the color of the colonies” and the growth entry is “did not impair growth”.

Regarding `C[C@@H]1[C@H](O)[C@@H](C)/C=C/C=C/CC/C=C/C=C/C=C/C=C/C(O[C@H]2O[C@H](C)[C@@H](O)[C@H](N)[C@@H]2O)CC2O[C@](O)(CC(O)C(O)CCC(O)CC(O)CC(O)CC(=O)O[C@H]1C)CC(O)C2C(=O)O` (some centres unmarked) [nystatin], the “pigment of highest mutant” value with P. rhodozyma [4] (mutant of ATCC 24202 from 3 and 5 μg/ml nystatin, control 270 μg/g) came to 400 µg/g.

With `C=C(C)[C@H]1Cc2c(ccc3c2O[C@@H]2COc4cc(OC)c(OC)cc4[C@@H]2C3=O)O1` [rotenone], in the assay with P. rhodozyma [3], the “influence on pigmentation of P. rhodozyma” value is reported as “do not seem to significantly influence pigmentation”.

Regarding tunicamycin, the “pigment of resistant mutant” value with P. rhodozyma [4] (8 μg/ml tunicamycin resistant mutant of ATCC 24202, control 270 μg/g) amounted to 610 µg/g.
